Measurements reported in patent US20100136598A1, “NOVEL MESENCHYMAL PROGENITOR CELLS DERIVED FROM HUMAN BLASTOCYST-DERIVED STEM CELLS” (priority 2007, published 2010).
Where two headings read alike, the source gives them in different places.

Assays:
hBS cells = assay: Cytotoxicity test in 96-well plates, 10 days (ATP content / Resazurin); settings: for Ratios between the IC50 values measured using the Resazurin assay: hBS cells (reference = 1), day 10
hBS-MP cells [1] = assay: as above; settings: for Ratios between the IC50 values measured using the Resazurin assay: hBS-MP cells relative to hBS cells, day 10; for sensitivity of hBS cells and hBS-MP cells compared to hFF cells (comparison of IC50 values): hBS and hBS-MP cells versus hFF cells
hFF cells = assay: as above; settings: for Ratios between the IC50 values measured using the Resazurin assay: hFF cells relative to hBS cells, day 10
hBS-MP cells [2] = system: hBS-MP cells
Experimental: hBS cells were dissociated into small cell aggregates and seeded into 96-well plates (Nunc, Kamstrupvej, Denmark) in 100 μl Test medium containing Knock Out DMEM supplemented with 20% Foetal bovine Serum (FBS), 1% penicillin-streptomycin, 1% Glutamax, 0.5 mmol/l β-mercaptoethanol and 1% non-essential amino acids (all Invitrogen). hBS-MP cells and hFF cells were dissociated into single cells and seeded into 96-well plates in 100 μl test medium.
After 24 hours the cytotoxicity test was started by adding 100 μl toxicity solution to the test wells that had twice the concentration as the required end concentration (day 0).

sensitivity of hBS cells and hBS-MP cells compared to hFF cells (comparison of IC50 values) (hBS-MP cells [2]) | sensitivity of hBS cells and progenitor cells compared to hFF (dose-response curve) (hBS-MP cells [2]) | SMILES | Ratios between the IC50 values measured using the Resazurin assay (hBS cells) | Ratios between the IC50 values measured using the Resazurin assay (hBS-MP cells [1]) | Ratios between the IC50 values measured using the Resazurin assay (hFF cells) | sensitivity of hBS cells and hBS-MP cells compared to hFF cells (comparison of IC50 values) (hBS-MP cells [1]) | toxic reaction (hBS cells; hBS cells, data not shown) | toxic reaction (hBS-MP cells [1]; hBS-MP cells, data not shown) | toxic reaction (hFF cells; hFF cells, data not shown)
much more sensitive |  | O=c1[nH]cc(F)c(=O)[nH]1 [5-FU, 5-fluoro-uracil] | 1 | 3 | 7 |  |  |  | 
 | higher sensitivity | CC1=C(/C=C/C(C)=C/C=C/C(C)=C\C(=O)O)C(C)(C)CCC1 [13CRA, 13-cis-retinoic acid] | 1 | 4 | 10 | much more sensitive |  |  | 
 | higher sensitivity | CC1=C(/C=C/C(C)=C/C=C/C(C)=C/C(=O)O)C(C)(C)CCC1 [ATRA, all-trans-retinoic acid] | 1 | 1 | 2 | much more sensitive |  |  | 
 |  | O=C1NS(=O)(=O)c2ccccc21.[Na] [saccharin, sodium saccharin] |  |  |  |  | no toxic reaction | no toxic reaction | no toxic reaction
